Test results published in patent US20250215012A1, “IKZF2 DEGRADERS AND USES THEREOF” (REGENTS OF THE UNIVERSITY OF MICHIGAN, priority 2022, published 2025).

What was measured:
IKZF2 [1] = target: T1, IKZF2 (Homo sapiens (Human), UniProt Q96SW2+Q9UKS7); test: IKZF2 HiBit Assay (HEK293T Flp-in-HiBiT cells); assay type: cell-based; settings: HEK293T Flp-in-HiBiT cells, 6 hrs; for DC50: read-out: IKZF2 HiBit degradation DC50; for Dmax: HEK-293T, read-out: IKZF2 HiBit degradation Dmax
Protocol: The HiBiT protein tagging system was applied to modified HEK293T Flp-in-HiBiT cells (polyclone) via a CRISPR/Cas9—mediated insertion of the HiBiT peptide tag (Promega™) to the N-terminus of the IKZF2 gene locus (Neon™ transfection system). Test and reference compounds are diluted from 1 mM at 3 folds for 11 doses. 25 nL of diluted compound is transferred to assay plates (Corning3570) using ECHO550, the final DMSO concentration @0.1%. The cells are seeded in 3000/[…]/well to compound plates. It is then incubated for 6 hrs in TC incubator. The amount of Nano-Glo® HiBiT lytic reagent needed to perform the desired experiments is calculated. The Nano-Glo® HiBiT lytic reagent is brought to room temperature. The LgBiT protein is diluted to 1:100 and the Nano-Glo® HiBiT lytic substrate is diluted to 1:50 into an appropriate volume of room temperature Nano-Glo® HiBiT lytic buffer. […] of the detection reagent (or without LgBiT) is dispensed to corresponding well according to the layout. The plate is then shaked for 10 mins at room temperature. After briefly centrifuge, the plate is read on Envision. At the indicated timepoints, the Nano-Glo® HiBiT lytic detection system (Promega™) was utilized for detecting bioluminescence of the HiBiT tag in treated cells: abundance of the tag is proportionate to the level of luminescence. Following normalization to DMSO, dose-response curves were plotted (GraphPad Prism) to determine the concentration points at which 50% of HiBiT-Helios degradation was achieved by each compound. The extent of degradation (range of luminescence) from the highest to lowest concentration points was calculated to determine the Dmax.

IKZF1 = IKZF1 (Homo sapiens (Human), UniProt Q13422+Q96SW2); test: IKZF1 HiBit Assay (HEK293T Flp-in-HiBiT-IKZF1 stable cell line); assay type: cell-based; settings: HEK293T Flp-in-HiBiT-IKZF1 cells, 6 hrs; for DC50: read-out: IKZF1 HiBit degradation DC50; for Dmax: HEK-293T, read-out: IKZF1 HiBit degradation Dmax
Protocol: The HiBiT protein tagging system was applied to modified Cells: modified HEK293T Flp-in-HiBiT-IKZF1 stable cell line (polyclone) via a CRISPR/Cas9—mediated insertion of the HiBiT peptide tag (Promega™) to the N-terminus of the IKZF2 gene locus (Neon™ transfection system).
Test compound from 10 mM and reference compound (CC-92480 from 50 mM and I-57 from 10 mM) are diluted at 3 folds for 11 doses. 25 nL of diluted compound is transferred to assay plates (Corning3571) using ECHO550, the final DMSO concentration @0.1%. The cells are seeded in 3000/[…]/well to compound plates. The plates are incubated for 6 hrs in TC incubator. The amount of Nano-Glo® HiBiT lytic reagent needed to perform the desired experiments is calculated. The Nano-Glo® HiBiT lytic reagent is brought to room temperature. The LgBiT protein is diluted to 1:100 and the Nano-Glo® HiBiT lytic substrate is brought to 1:50 into an appropriate volume of room temperature Nano-Glo® HiBiT lytic buffer. […] of the detection reagent (or without LgBiT) is dispensed to corresponding well according to the layout. The plate is shaked for 10 mins at room temperature. After briefly centrifuging, the plate is read on Envision. At the indicated timepoints, the Nano-Glo® HiBiT lytic detection system (Promega™) was utilized for detecting bioluminescence of the HiBiT tag in treated cells: abundance of the tag is proportionate to the level of luminescence. Following normalization to DMSO, dose-response curves were plotted (GraphPad Prism) to determine the concentration points at which 50% of HiBiT-Ikaros degradation was achieved by each compound. The extent of degradation (range of luminescence) from the highest to lowest concentration points was calculated to determine the Dm.

[2] = target: His tagged CRBN+DDB−DLS7+CXU4 (Homo sapiens (Human), UniProt Q96SW2); test: IC50 Measurements for Binding to CRBN/DDBI (HTRF); settings: Cy5-labeled Thalidomide probe, one hour incubation
IKZF2 [3] = target: T1, IKZF2; test: IKZF2 HiBiT Assay (Jurkat-IKZF2-HiBiT cell line); assay type: cell-based; settings: Jurkat-IKZF2-HiBiT cells, 24 hours; for DC50: read-out: HiBit assay degradation analysis DC50; for Dmax: read-out: HiBit assay degradation analysis Dmax
In short: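 IKZF2 degradation was assessed as HiBiT luminescence in Jurkat-IKZF2-HiBiT cells, using lytic detection after 24 h of compound treatment at 37 °C, 5% CO2.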

T1 sequence (Q9UKS7 whole entry): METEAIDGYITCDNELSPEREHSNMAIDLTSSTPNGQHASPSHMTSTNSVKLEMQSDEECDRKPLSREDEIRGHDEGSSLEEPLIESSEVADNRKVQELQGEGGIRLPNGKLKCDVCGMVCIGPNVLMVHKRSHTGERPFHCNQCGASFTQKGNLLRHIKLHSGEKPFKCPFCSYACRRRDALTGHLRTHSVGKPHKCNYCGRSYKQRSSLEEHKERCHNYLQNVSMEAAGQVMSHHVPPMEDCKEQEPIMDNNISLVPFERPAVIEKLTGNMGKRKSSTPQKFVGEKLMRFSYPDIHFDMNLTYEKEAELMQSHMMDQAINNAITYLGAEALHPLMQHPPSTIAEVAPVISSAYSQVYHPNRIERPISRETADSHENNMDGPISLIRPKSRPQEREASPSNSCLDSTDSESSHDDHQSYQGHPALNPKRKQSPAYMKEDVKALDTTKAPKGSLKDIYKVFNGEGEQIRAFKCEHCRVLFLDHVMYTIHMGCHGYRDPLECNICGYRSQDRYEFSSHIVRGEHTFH
T1 sequence (Q96SW2 whole entry): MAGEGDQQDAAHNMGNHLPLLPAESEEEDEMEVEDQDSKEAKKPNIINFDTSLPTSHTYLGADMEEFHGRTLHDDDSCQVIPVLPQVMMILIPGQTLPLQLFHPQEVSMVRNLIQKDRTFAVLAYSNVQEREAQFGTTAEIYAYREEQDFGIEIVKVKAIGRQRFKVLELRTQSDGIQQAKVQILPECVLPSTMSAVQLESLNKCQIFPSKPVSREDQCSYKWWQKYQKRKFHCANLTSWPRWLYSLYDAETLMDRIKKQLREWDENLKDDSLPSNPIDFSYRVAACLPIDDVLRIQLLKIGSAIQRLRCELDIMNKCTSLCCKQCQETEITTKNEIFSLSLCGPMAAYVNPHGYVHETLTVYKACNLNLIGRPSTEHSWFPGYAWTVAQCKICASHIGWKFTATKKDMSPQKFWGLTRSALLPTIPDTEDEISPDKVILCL
T1 sequence (Q16531 whole entry partner): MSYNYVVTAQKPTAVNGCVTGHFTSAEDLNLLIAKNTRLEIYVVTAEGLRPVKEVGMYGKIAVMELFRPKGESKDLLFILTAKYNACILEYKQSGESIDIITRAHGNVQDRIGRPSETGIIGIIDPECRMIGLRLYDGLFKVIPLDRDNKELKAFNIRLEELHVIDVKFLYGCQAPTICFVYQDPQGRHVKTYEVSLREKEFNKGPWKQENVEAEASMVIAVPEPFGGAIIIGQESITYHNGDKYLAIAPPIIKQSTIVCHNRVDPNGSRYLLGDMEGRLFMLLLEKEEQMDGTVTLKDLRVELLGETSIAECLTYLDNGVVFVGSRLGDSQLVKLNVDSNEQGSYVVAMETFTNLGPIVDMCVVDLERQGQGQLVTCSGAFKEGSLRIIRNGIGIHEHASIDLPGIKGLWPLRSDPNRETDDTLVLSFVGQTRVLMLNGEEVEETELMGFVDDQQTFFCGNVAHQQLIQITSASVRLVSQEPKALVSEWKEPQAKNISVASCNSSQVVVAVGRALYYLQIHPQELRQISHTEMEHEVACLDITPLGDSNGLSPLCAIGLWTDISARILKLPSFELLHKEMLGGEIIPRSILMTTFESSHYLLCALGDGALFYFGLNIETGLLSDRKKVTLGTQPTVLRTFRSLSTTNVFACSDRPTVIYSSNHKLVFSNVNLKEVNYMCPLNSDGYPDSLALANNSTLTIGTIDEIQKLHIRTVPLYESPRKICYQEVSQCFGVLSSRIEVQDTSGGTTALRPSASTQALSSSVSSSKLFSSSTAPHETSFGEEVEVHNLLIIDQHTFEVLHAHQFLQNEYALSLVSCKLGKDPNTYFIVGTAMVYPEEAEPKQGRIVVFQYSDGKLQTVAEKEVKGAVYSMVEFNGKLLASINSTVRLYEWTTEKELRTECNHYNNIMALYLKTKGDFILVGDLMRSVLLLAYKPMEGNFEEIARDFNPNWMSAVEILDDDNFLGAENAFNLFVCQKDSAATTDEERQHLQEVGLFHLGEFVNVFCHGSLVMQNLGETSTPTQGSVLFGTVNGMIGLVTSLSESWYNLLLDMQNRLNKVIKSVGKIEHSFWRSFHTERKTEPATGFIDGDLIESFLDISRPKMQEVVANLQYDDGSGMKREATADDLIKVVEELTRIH
Sequence of IKZF1 (Q13422 whole entry): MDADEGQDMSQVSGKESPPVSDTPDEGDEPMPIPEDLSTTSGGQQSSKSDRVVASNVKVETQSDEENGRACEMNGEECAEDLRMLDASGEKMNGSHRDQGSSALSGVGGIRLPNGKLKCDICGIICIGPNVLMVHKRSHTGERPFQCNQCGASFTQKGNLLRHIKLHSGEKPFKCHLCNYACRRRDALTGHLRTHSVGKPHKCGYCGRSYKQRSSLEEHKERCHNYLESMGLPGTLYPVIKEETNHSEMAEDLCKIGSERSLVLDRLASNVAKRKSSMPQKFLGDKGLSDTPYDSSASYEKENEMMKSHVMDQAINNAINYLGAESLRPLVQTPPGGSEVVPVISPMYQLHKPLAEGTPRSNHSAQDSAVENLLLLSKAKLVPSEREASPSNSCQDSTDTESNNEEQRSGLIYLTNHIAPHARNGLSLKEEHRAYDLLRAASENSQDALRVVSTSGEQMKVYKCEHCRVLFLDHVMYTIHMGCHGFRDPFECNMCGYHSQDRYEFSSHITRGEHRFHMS
Sequence of IKZF1 (Q96SW2 whole entry): as the sequence (Q96SW2 whole entry) above
Sequence of IKZF1 (Q16531 whole entry partner): as the sequence (Q16531 whole entry partner) above
Sequence of His tagged CRBN+DDB−DLS7+CXU4 (Q96SW2 whole entry): as the sequence (Q96SW2 whole entry) above
Sequence of His tagged CRBN+DDB−DLS7+CXU4 (Q16531 whole entry partner): as the sequence (Q16531 whole entry partner) above

O=C1CCC(N2Cc3c(ccc4c3OCC43CCN(Cc4ccccc4)CC3(F)F)C2=O)C(=O)N1 (stereo not drawn) [Compound B25, 3-(1′-benzyl-3′,3′-difluoro-6-oxo-6,8-dihydro-2H,7H-spiro[furo[2,3-e]isoindole-3,4′-piperidin]-7-yl)piperidine-2,6-dione]
DC50 (IKZF2 [1]): 1 to 10 nM
Dmax (IKZF2 [1]): 60 to 80%
DC50 (IKZF1): 1 to 10 nM
Dmax (IKZF1): 20 to 40%

O=C1CCC(N2Cc3c(ccc4c3OCC43CCN(Cc4ccccc4)CC3F)C2=O)C(=O)N1 (stereo not drawn) [Compound B23, 3-(1′-benzyl-3′-fluoro-6-oxo-6,8-dihydro-2H,7H-spiro[furo[2,3-e]isoindole-3,4′-piperidin]-7-yl)piperidine-2,6-dione]
DC50 (IKZF2 [1]): > 1000 nM
Dmax (IKZF2 [1]): < 20%
IC50 [2]: 500 to 1000 nM
DC50 (IKZF1): > 1000 nM
Dmax (IKZF1): < 20%

O=C1CC[C@H](N2Cc3c(ccc4c3OC[C@@]43CCN(Cc4cccc(-c5cnn(C6COC6)c5)c4)CC3(F)F)C2=O)C(=O)N1 [Compound B54, (S)-3-((R)-3′,3′-difluoro-1′-(3-(1-(oxetan-3-yl)-1H-pyrazol-4-yl)benzyl)-6-oxo-6,8-dihydro-2H,7H-spiro[furo[2,3-e]isoindole-3,4′-piperidin]-7-yl)piperidine-2,6-dione]
DC50 (IKZF2 [1]): 1 to 10 nM
Dmax (IKZF2 [1]): 60 to 80%
DC50 (IKZF1): > 1000 nM
Dmax (IKZF1): 20 to 40%

O=C1CC[C@@H](N2Cc3c(ccc4c3OCC43CCN(Cc4cccc(-c5cnn(C6COC6)c5)c4)CC3)C2=O)C(=O)N1 [Compound B15, (R)-3-(1′-(3-(1-(oxetan-3-yl)-1H-pyrazol-4-yl)benzyl)-6-oxo-6,8-dihydro-2H,7H-spiro[furo[2,3-e]isoindole-3,4′-piperidin]-7-yl)piperidine-2,6-dione]
DC50 (IKZF2 [1]): 1 to 10 nM
Dmax (IKZF2 [1]): > 80%
DC50 (IKZF1): > 1000 nM
Dmax (IKZF1): < 20%

Cn1cc(-c2cccc(CN3CCC4(CC3)CNc3c4ccc4c3CN([C@H]3CCC(=O)NC3=O)C4=O)c2)cn1 [Compound B57, (S)-3-(1-(3-(1-methyl-1H-pyrazol-4-yl)benzyl)-6′-oxo-1′,2′,6′,8′-tetrahydro-7′H-spiro[piperidine-4,3′-pyrrolo[3,4-g]indol]-7′-yl)piperidine-2,6-dione]
DC50 (IKZF2 [1]): 10 to 100 nM
Dmax (IKZF2 [1]): 60 to 80%
DC50 (IKZF1): > 1000 nM
Dmax (IKZF1): < 20%

N#Cc1ccc(-n2cc(CN3CCC4(CC3)CNc3c4ccc4c3CN([C@H]3CCC(=O)NC3=O)C4=O)cn2)cc1 [Compound B58, (S)-4-(4-((7′-(2,6-dioxopiperidin-3-yl)-6′-oxo-1′,6′,7′,8′-tetrahydro-2′H-spiro[piperidine-4,3′-pyrrolo[3,4-g]indol]-1-yl)methyl)-1H-pyrazol-1-yl)benzonitrile]
DC50 (IKZF2 [1]): 1 to 10 nM
Dmax (IKZF2 [1]): 40 to 60%
DC50 (IKZF1): > 1000 nM
Dmax (IKZF1): < 20%

O=C1CC[C@H](N2Cc3c(ccc4c3NCC43CCN(Cc4ccccc4)CC3)C2=O)C(=O)N1 [Compound B56, (S)-3-(1-benzyl-6′-oxo-1′,2′,6′,8′-tetrahydro-7′H-spiro[piperidine-4,3′-pyrrolo[3,4-g]indol]-7′-yl)piperidine-2,6-dione]
DC50 (IKZF2 [1]): 10 to 100 nM
Dmax (IKZF2 [1]): 40 to 60%
DC50 (IKZF1): > 1000 nM
Dmax (IKZF1): < 20%

O=C1CCC(N2Cc3c(ccc4c3OCC43CCN(Cc4cccc5cn[nH]c45)CC3O)C2=O)C(=O)N1 (stereo not drawn) [Compound B24, 3-(1′-((1H-indazol-7-yl)methyl)-3′-hydroxy-6-oxo-6,8-dihydro-2H,7H-spiro[furo[2,3-e]isoindole-3,4′-piperidin]-7-yl)piperidine-2,6-dione]
DC50 (IKZF2 [1]): 10 to 100 nM
Dmax (IKZF2 [1]): 60 to 80%
DC50 (IKZF1): > 1000 nM
Dmax (IKZF1): < 20%

O=C1CC[C@H](N2Cc3c(ccc4c3OCC43CCN(Cc4cnn(CC5CCS(=O)(=O)CC5)c4)CC3(F)F)C2=O)C(=O)N1 (stereo partly drawn) [Compound B47, (3S)-3-(1′-((1-((1,1-dioxidotetrahydro-2H-thiopyran-4-yl)methyl)-1H-pyrazol-4-yl)methyl)-3′,3′-difluoro-6-oxo-6,8-dihydro-2H,7H-spiro[furo[2,3-e]isoindole-3,4′-piperidin]-7-yl)piperidine-2,6-dione]
DC50 (IKZF2 [1]): 10 to 100 nM
Dmax (IKZF2 [1]): 60 to 80%
DC50 (IKZF1): > 1000 nM
Dmax (IKZF1): < 20%

O=C1CC[C@H](N2Cc3c(ccc4c3OCC43CCN(Cc4cnn(CC5CCOCC5)c4)CC3)C2=O)C(=O)N1 [Compound B6, (S)-3-(6-oxo-1′-((1-((tetrahydro-2H-pyran-4-yl)methyl)-1H-pyrazol-4-yl)methyl)-6,8-dihydro-2H,7H-spiro[furo[2,3-e]isoindole-3,4′-piperidin]-7-yl)piperidine-2,6-dione]
DC50 (IKZF2 [1]): 1 to 10 nM
Dmax (IKZF2 [1]): 60 to 80%
DC50 (IKZF1): > 1000 nM
Dmax (IKZF1): < 20%

O=C1CCC(N2Cc3c(ccc4c3OCC43CCN(Cc4cnn(-c5ccccc5)c4)CC3)C2=O)C(=O)N1 (stereo not drawn) [Compound A221, 3-(6-oxo-1′-((1-phenyl-1H-pyrazol-4-yl)methyl)-6,8-dihydro-2H,7H-spiro[furo[2,3-e]isoindole-3,4′-piperidin]-7-yl)piperidine-2,6-dione]
DC50 (IKZF2 [3]): > 500 nM
Dmax (IKZF2 [3]): 40 to 60%

O=C1CCC(N2Cc3c(ccc4c3OCC43CCN(Cc4ccnn4-c4ccccc4)CC3)C2=O)C(=O)N1 (stereo not drawn) [Compound A246, 3-(6-oxo-1′-((1-phenyl-1H-pyrazol-5-yl)methyl)-6,8-dihydro-2H,7H-spiro[furo[2,3-e]isoindole-3,4′-piperidin]-7-yl)piperidine-2,6-dione]
DC50 (IKZF2 [3]): > 500 nM
Dmax (IKZF2 [3]): < 40%

O=C1CCC(N2Cc3c(ccc4c3OCC43CCN(Cc4ccc(OCc5ccccc5)cn4)CC3)C2=O)C(=O)N1 (stereo not drawn) [Compound A338, 3-(1′-((5-(benzyloxy)pyridin-2-yl)methyl)-6-oxo-6,8-dihydro-2H,7H-spiro[furo[2,3-e]isoindole-3,4′-piperidin]-7-yl)piperidine-2,6-dione]
DC50 (IKZF2 [3]): > 500 nM
Dmax (IKZF2 [3]): < 40%

O=C1CCC(N2Cc3c(ccc4c3OCC43CCN(CC4CCCCC4)CC3)C2=O)C(=O)N1 (stereo not drawn) [Compound A7, 3-(1′-(cyclohexylmethyl)-6-oxo-6,8-dihydro-2H,7H-spiro[furo[2,3-e]isoindoline-3,4′-piperidin]-7-yl)piperidine-2,6-dione]
DC50 (IKZF2 [3]): > 500 nM
Dmax (IKZF2 [3]): < 40%

O=C1CC[C@H](N2Cc3c(ccc4c3OCC43CCN(Cc4cccc(-c5cnn(CCF)c5)c4)CC3)C2=O)C(=O)N1 [Compound A293, (S)-3-(1′-(3-(1-(2-fluoroethyl)-1H-pyrazol-4-yl)benzyl)-6-oxo-6,8-dihydro-2H,7H-spiro[furo[2,3-e]isoindole-3,4′-piperidin]-7-yl)piperidine-2,6-dione]
DC50 (IKZF2 [3]): < 50 nM
Dmax (IKZF2 [3]): 60 to 80%
